The NIST ThermoML archive (doi:10.1021/je034173q)
Numbers after ± are expanded uncertainties.

Tests used:
[1] = Liquid, Ebulliometric method (Recirculating still)
[2] = molar heat capacity at constant pressure; details: 101.33 kPa, Liquid, Small sample (50 mg) DSC

CCC1COC(=O)O1 (centres undefined) [1,2-butylene carbonate]
Details | molar heat capacity at constant pressure [J/K/mol] | vapor or sublimation pressure [kPa]
[1], 397.25 K | – | 1.9 ± 0.04
[1], 402.93 K | – | 2.44 ± 0.05
[1], 409.65 K | – | 3.23 ± 0.07
[1], 417.69 K | – | 4.45 ± 0.09
[1], 424.67 K | – | 5.8 ± 0.12
[1], 432.03 K | – | 7.57 ± 0.15
[1], 438.31 K | – | 9.43 ± 0.19
[1], 445.57 K | – | 12.03 ± 0.24
[1], 453.2 K | – | 15.39 ± 0.31
[1], 460.53 K | – | 19.28 ± 0.39
[1], 467.68 K | – | 23.89 ± 0.48
[1], 474.59 K | – | 29.14 ± 0.58
[1], 481.93 K | – | 35.77 ± 0.72
[1], 488.3 K | – | 42.38 ± 0.85
[1], 495.04 K | – | 50.52 ± 1
[1], 501.76 K | – | 59.91 ± 1.2
[1], 508.33 K | – | 70.54 ± 1.4
[1], 515.54 K | – | 83.68 ± 1.7
[1], 522.74 K | – | 99.08 ± 2
[2], 283.15 K | 192.75 ± 5.8 | –
[2], 293.15 K | 195.07 ± 5.8 | –
[2], 303.15 K | 197.4 ± 5.8 | –
[2], 313.15 K | 199.72 ± 5.8 | –
[2], 323.15 K | 202.04 ± 5.8 | –
[2], 333.15 K | 205.52 ± 5.8 | –
[2], 343.15 K | 207.85 ± 5.8 | –
[2], 353.15 K | 210.17 ± 5.8 | –
[2], 363.15 K | 212.49 ± 5.8 | –
[2], 373.15 K | 214.81 ± 5.8 | –

CC1COC(=O)O1 (centres undefined) [4-methyl-1,3-dioxolan-2-one]
Details | molar heat capacity at constant pressure [J/K/mol] | vapor or sublimation pressure [kPa]
[1], 459.85 K | – | 24.21 ± 0.48
[1], 465.35 K | – | 28.46 ± 0.57
[1], 468.45 K | – | 31.24 ± 0.63
[1], 471.75 K | – | 34.04 ± 0.68
[1], 475.85 K | – | 38.09 ± 0.76
[1], 478.35 K | – | 40.81 ± 0.82
[1], 482.25 K | – | 45.44 ± 0.91
[1], 485.05 K | – | 49.16 ± 0.98
[1], 491.25 K | – | 57.38 ± 1.1
[1], 494.25 K | – | 61.83 ± 1.2
[1], 496.95 K | – | 66.33 ± 1.3
[1], 499.45 K | – | 70.45 ± 1.4
[1], 501.25 K | – | 73.46 ± 1.5
[1], 504.05 K | – | 78.67 ± 1.6
[1], 506.65 K | – | 83.64 ± 1.7
[1], 508.15 K | – | 86.64 ± 1.7
[1], 509.75 K | – | 89.87 ± 1.8
[1], 511.15 K | – | 92.66 ± 1.9
[1], 513.25 K | – | 97.17 ± 1.9
[2], 303.15 K | 170.49 ± 5.1 | –
[2], 313.15 K | 172.53 ± 5.1 | –
[2], 323.15 K | 174.57 ± 5.1 | –
[2], 333.15 K | 176.61 ± 5.1 | –
[2], 343.15 K | 178.66 ± 5.1 | –
[2], 353.15 K | 180.7 ± 5.1 | –
[2], 363.15 K | 183.76 ± 5.1 | –
[2], 373.15 K | 185.8 ± 5.1 | –
[2], 383.15 K | 188.86 ± 5.1 | –
[2], 393.15 K | 190.91 ± 5.1 | –

O=C1OCCO1 [ethylene carbonate]
Details | molar heat capacity at constant pressure [J/K/mol] | vapor or sublimation pressure [kPa]
[1], 451.58 K | – | 15.19 ± 0.3
[1], 456.04 K | – | 17.52 ± 0.35
[1], 460.15 K | – | 19.94 ± 0.4
[1], 466.22 K | – | 24.23 ± 0.49
[1], 487.1 K | – | 44.69 ± 0.89
[1], 493.67 K | – | 53.59 ± 1.1
[1], 500.01 K | – | 63.34 ± 1.3
[1], 505.5 K | – | 73.45 ± 1.5
[2], 383.15 K | 155.87 ± 4.4 | –
[2], 388.15 K | 156.75 ± 4.4 | –
[2], 393.15 K | 157.63 ± 4.4 | –
[2], 398.15 K | 158.51 ± 4.4 | –

O=C1OCC(CO)O1 (centres undefined) [glycerine carbonate]
Details | molar heat capacity at constant pressure [J/K/mol] | vapor or sublimation pressure [kPa]
[1], 429.91 K | – | 0.26 ± 0.01
[1], 432.47 K | – | 0.3 ± 0.01
[1], 434.39 K | – | 0.33 ± 0.01
[1], 435.94 K | – | 0.36 ± 0.01
[1], 438.9 K | – | 0.41 ± 0.01
[1], 447.48 K | – | 0.62 ± 0.02
[1], 449.41 K | – | 0.68 ± 0.02
[1], 452.48 K | – | 0.78 ± 0.02
[1], 455.61 K | – | 0.9 ± 0.02
[2], 283.15 K | 211.38 ± 5.9 | –
[2], 293.15 K | 213.74 ± 5.9 | –
[2], 303.15 K | 214.92 ± 5.9 | –
[2], 313.15 K | 216.1 ± 5.9 | –
[2], 323.15 K | 217.28 ± 5.9 | –
[2], 333.15 K | 218.46 ± 5.9 | –
[2], 343.15 K | 220.82 ± 5.9 | –
[2], 353.15 K | 223.19 ± 5.9 | –
[2], 363.15 K | 225.55 ± 7.1 | –
[2], 373.15 K | 226.73 ± 7.1 | –
